# Test results reported in US11434472B2, “Agent for removing undifferentiated iPS cells” (Sumitomo Pharma Co., Ltd., priority 2016, dated 2022).
# What was measured:
# Type in all cases: cell-based
# [1] = tested on: differentiation-inducing cell aggregates formed from human iPS cells; assay: Effect on differentiation-inducing cell aggregates (Cleaved Caspase-3 immunostaining); conditions: 24 hours, aggregates without treatment 19%
# Experimental: Firstly, differentiation-inducing cell aggregates were prepared according to the following procedures.
# According to a similar method to that of Test Example 2, the human iPS cells one day before subconfluence were cultured under feeder free conditions using the StemFit medium (AK03; Ajinomoto) in the presence of SB431542 (TGFβ signaling pathway inhibitory compound (TGFβR-i), 5 μmol/L) for 1 day. A 6-well plate (Iwaki, for cell culture, culture area 9.4 cm^2) was used as the plastic culture dish, and the number of plated cells for the human iPS cells dispersed into single cells was set 1.0×10^4. The cells were treated with cell dispersion using TrypLE Select (Life Technologies), and dispersed into single cells by pipetting operation. The cells were then suspended in 100 μl of a serum-free medium at 1.0×10^4 cells per well of a non-cell adhesive 96-well culture plate (PrimeSurface 96V-bottom plate, manufactured by SUMITOMO BAKELITE), and cultured in suspension at 37° C. and 5% CO2. As the serum-free medium (gfCDM+KSR), a serum-free medium which is 1:1 mixture of F-12 medium and IMDM medium supplemented with 10% KSR, 450 μmol/L 1-monothioglycerol, and 1×Chemically defined lipid concentrate was used. At the time of the start of suspension culture (day 0 after the start of suspension culture), Y27632 (final concentration: 20 μmol/L) was added to the medium, and the cells was further cultured using a medium containing Wnt signaling inhibitory compound (IWR-1e, 3 μmol/L).
# After culturing at 37° C. and 5% CO2 for 24 hours, the medium was changed to the serum-free medium containing the present compound in a final concentration of 0.1 μmol/L or 1 μmol/L, or DMSO in a concentration equal thereto, and the cells were cultured for additional 24 hours. After 24 hours, the obtained cell aggregates were fixed with 4% paraformaldehyde to prepare frozen sections. […] The immunostained sections were observed by inverted fluorescence microscope (Keyence, BIREVO). In addition, the Cleaved Caspase-3 positive area was calculated using the NIH Image-J software.
# human iPS cells = assay: Evaluation of cytotoxic activity against iPS cells (DAPI nuclear staining, DAPI positive area); conditions: 24 hours
# Experimental: Human iPS cells were cultured under feeder-free condition according to the method described in Scientific Reports, 4, 3594 (2014). The StemFit medium (AKO3N, Ajinomoto) was used as feeder-free medium, and Laminin511-E8 (Nippi) was used as feeder-free scaffold.
# The subconfluent human iPS cells were washed with PBS and dispersed into single cells using TrypLE Select (Life Technologies). The human iPS cells were then seeded in a plastic culture dish coated with Laminin511-E8, and cultured under feeder-free conditions at 37° C. and 5% CO2 using the StemFit medium in the presence of Y27632 (ROCK inhibitory compound, 10 μmol/L). A 96-well plate (BD, for cell culture, culture area 0.35 cm^2) was used as the plastic culture dish, and the number of plated cells for the human iPS cells dispersed into single cells was set to 0.03×10^4. The medium was changed to Y27632-free StemFit medium 1 day after the seeding. Thereafter, the medium was changed to the Y27632-free StemFit medium once in 1 to 2 days. The cells were then cultured until subconfluent (60% of culture area is covered with the cells). To the human iPS cells was added the Stem Fit medium (AK03; Ajinomoto) to adjust the final concentrations of the compounds of Examples 1-2, 10-2, and 22 dissolved in DMSO to 10, 1, 0.1, and 0.01 μmol/L, and the cells were cultured for 24 hours.
# After 24 hours, the medium was removed, the obtained cells were each fixed with 4% paraformaldehyde at 4° C. for 15 minutes, PBS solution containing DAPI (Sigma) was added thereto to perform nuclear staining for the cells, and then the cells were observed by inverted fluorescence microscope (Keyence, BIREVO). In addition, the DAPI positive area was calculated using the quantitative software of the microscope.
# HCT-116 cells = assay: Test for inhibiting sphere-forming ability of cancer cells; conditions: Homo sapiens, 96 h, non-adherent serum-free sphere culture, 4 days, CellTiter-Glo, read-out: IC50 (Sphere IC50 value; concentration for 50% inhibition of cell proliferation)
# Experimental: The reliable methods established for measuring the self-renewal ability of cells which is one of the CSC's properties include a method for measuring the sphere-forming ability of cancer cells in non-adherent condition in the absence of serum (Cancer Res 65, 5506-5511 (2005)). HCT-116 cells were available from the American Type Culture Collection (ATCC). HCT-116 cells were cultured at 37° C. and 5% CO2 using the McCoy's 5a medium containing 10% fetal bovine serum (FBS), 100 U/ml penicillin, and 100 μg/ml streptomycin. HCT-116 cells were seeded in a 384 Well Black Clear Bottom Ultra-Low Attachment Microplate (Corning Cat. No. 3827) in an amount of 350-800 cells/well using the DMEM/F12 medium containing 2% B27 supplement (GIBCO), 20 ng/mL epidermal growth factor (EGF) (peprotech), 10 ng/mL basic fibroblast growth factor (bFGF) (peprotech), 5 μg/mL insulin (Sigma), and 1% penicillin/streptomycin. The test compounds were added into each well to adjust the final concentration of DMSO to 0.1%, and the cells were cultured for 4 days. The number of viable cells in each well was then measured with CeilTiter-Glo® Luminescent Cell Viability Assay (Promega) to calculate the concentration of each test compound for 50% inhibition of cell proliferation (Sphere IC50 value; μmol/L).
# The experiment of Test Example 1 was performed for the compound of each Example. The concentration of each test compound for 50% inhibition of cell proliferation (Sphere IC50 value; μmol/L) is shown in the following Table.
IC50 (HCT-116 cells),Structure (SMILES),other results
,"CC(=O)Nc1ccc(/C=C/C(=O)Nc2cn(Cc3cccc(C(F)(F)F)c3)cn2)cc1.Cl [Example 1-2, (2E)-3-[4-(Acetylamino)phenyl]-N-(1-[3-(trifluoromethyl)benzyl]-1H-imidazol-4-yl)prop-2-enamide hydrochloride]","ratio of Cleaved Caspase-3 positive area in the cell aggregates ([1]; 0.1 μmol/L): 24%; ratio of Cleaved Caspase-3 positive area in the cell aggregates ([1]; 1 μmol/L): 27%; ratio of viable cells to that of cells without treatment (human iPS cells; 0.1 μmol/L): 53%; ratio of viable cells to that of cells without treatment (human iPS cells; 1 μmol/L): 25%; ratio of viable cells to that of cells without treatment (human iPS cells; 10 μmol/L): 14%; concentration at which cytotoxic activity against human iPS cells was found (human iPS cells; tested at 10, 1, 0.1 and 0.01 μmol/L): ≥ 100 nM"
220 nM,CC(=O)Nc1ccc(/C=C/C(=O)Nc2cn(Cc3cccc(Cl)c3)cn2)cc1 [Example 2],
630 nM,CC(=O)Nc1ccc(/C=C/C(=O)Nc2cn(Cc3cccc(OC(F)(F)F)c3)cn2)cc1 [Example 3],
< 10 nM,CC(=O)Nc1ccc(/C=C/C(=O)Nc2cn(Cc3cc(F)c(F)c(F)c3)cn2)cc1 [Example 4],
60 nM,"COc1ccc(/C=C/C(=O)Nc2cn(Cc3cc(F)c(F)c(F)c3)cn2)cc1OCCO [Example 5, (E)-3-(3-(2-Hydroxyethoxy)-4-methoxyphenyl)-N-(1-(3,4,5-trifluorobenzyl)-1H-imidazol-4-yl)acrylamide]",
60 nM,"COc1ccc(/C=C/C(=O)Nc2cn(Cc3cccc(Cl)c3)cn2)cc1OCCO [Example 6, (2E)-N-[1-(3-Chlorobenzyl)-1H-imidazol-4-yl]-3-[3-(2-hydroxyethoxy)-4-methoxyphenyl]prop-2-enamide]",
90 nM,COc1ccc(/C=C/C(=O)Nc2cn(Cc3cccc(C(F)(F)F)c3)cn2)cc1OCCO [Example 7],
80 nM,N#Cc1ccc(/C=C/C(=O)Nc2cn(Cc3cccc(Cl)c3)cn2)cc1OCCO [Example 8],
890 nM,"O=C(/C=C/c1cccnc1)Nc1cn(Cc2cccc(Cl)c2)cn1 [Example 9, (2E)-N-(1-(3-Chlorobenzyl)-1H-imidazol-4-yl)-3-(pyridin-3-yl)prop-2-enamide]",
630 nM,"COc1ccc(C(=O)Nc2cn(Cc3cccc(Cl)c3)cn2)cc1OC.Cl [Example 10-2, N-[1-(3-Chlorobenzyl)-1H-imidazol-4-yl]-3,4-dimethoxybenzamide hydrochloride]",ratio of Cleaved Caspase-3 positive area in the cell aggregates ([1]; 1 μmol/L): 26%; ratio of viable cells to that of cells without treatment (human iPS cells; 1 μmol/L): 37%; ratio of viable cells to that of cells without treatment (human iPS cells; 10 μmol/L): 17%
60 nM,COc1ccc(C(=O)Nc2cn(Cc3cc(F)c(F)c(F)c3)cn2)cc1OC [Example 13],
629 nM,O=C(Nc1nc(CO)cs1)c1cn(Cc2cc(F)c(F)c(F)c2)cn1 [Example 16],
< 10 nM,O=C(COc1ccc(CO)nc1)Nc1cn(Cc2cc(F)c(F)c(F)c2)cn1 [Example 17],
,"O=C(Nc1cn(Cc2cccc(C(F)(F)F)c2)cn1)c1ccc(CO)nc1 [Example 22, 6-(hydroxymethyl)-N-{1-[3-(trifluoromethyl)benzyl]-1H-imidazol-4-yl}nicotinamide]",ratio of viable cells to that of cells without treatment (human iPS cells; 0.1 μmol/L): 51%; ratio of viable cells to that of cells without treatment (human iPS cells; 1 μmol/L): 31%

Structure (SMILES),IC50 (HCT-116 cells),other results
COc1ccc(NC(=O)c2cn(Cc3cc(F)c(F)c(F)c3)cn2)cc1OC [Example 14],210 nM,
